From patent publication US12180194B2, “Multi-aziridine compound” (Covestro (Netherlands) B.V., priority 2018, dated 2024)

Columns and labels:
[1] = tested on: Rtkn-GFP; assay: ToxTracker genotoxicity assay, Rtkn-GFP reporter induction; conditions: for Genotoxicity test, With S9 rat liver extract, Rtkn, 10 / Genotoxicity test, Without S9 rat liver extract, Rtkn, 10: GFP induction vs vehicle at 10% cytotoxicity; for Genotoxicity test, With S9 rat liver extract, Rtkn, 10 / Genotoxicity test, With S9 rat liver extract, Rtkn, 25 / Genotoxicity test, With S9 rat liver extract, Rtkn, 50: 3 h exposure with S9, 24 h recovery; for Genotoxicity test, Without S9 rat liver extract, Rtkn, 10 / Genotoxicity test, Without S9 rat liver extract, Rtkn, 25 / Genotoxicity test, Without S9 rat liver extract, Rtkn, 50: 24 h exposure, no S9; for Genotoxicity test, With S9 rat liver extract, Rtkn, 25 / Genotoxicity test, Without S9 rat liver extract, Rtkn, 25: GFP induction vs vehicle at 25% cytotoxicity; for Genotoxicity test, With S9 rat liver extract, Rtkn, 50 / Genotoxicity test, Without S9 rat liver extract, Rtkn, 50: GFP induction vs vehicle at 50% cytotoxicity
[2] = tested on: Bscl2-GFP; assay: ToxTracker genotoxicity assay, Bscl2-GFP reporter induction; conditions: for Genotoxicity test, With S9 rat liver extract, Bscl 2, 10 / Genotoxicity test, Without S9 rat liver extract, Bscl 2, 10: GFP induction vs vehicle at 10% cytotoxicity; for Genotoxicity test, With S9 rat liver extract, Bscl 2, 10 / Genotoxicity test, With S9 rat liver extract, Bscl 2, 25 / Genotoxicity test, With S9 rat liver extract, Bscl 2, 50: 3 h exposure with S9, 24 h recovery; for Genotoxicity test, Without S9 rat liver extract, Bscl 2, 10 / Genotoxicity test, Without S9 rat liver extract, Bscl 2, 25 / Genotoxicity test, Without S9 rat liver extract, Bscl 2, 50: 24 h exposure, no S9; for Genotoxicity test, With S9 rat liver extract, Bscl 2, 25 / Genotoxicity test, Without S9 rat liver extract, Bscl 2, 25: GFP induction vs vehicle at 25% cytotoxicity; for Genotoxicity test, With S9 rat liver extract, Bscl 2, 50 / Genotoxicity test, Without S9 rat liver extract, Bscl 2, 50: GFP induction vs vehicle at 50% cytotoxicity

Compound | Genotoxicity test, With S9 rat liver extract, Rtkn, 10 [1] [fold] | Genotoxicity test, Without S9 rat liver extract, Rtkn, 10 [1] [fold] | Genotoxicity test, With S9 rat liver extract, Rtkn, 25 [1] [fold] | Genotoxicity test, Without S9 rat liver extract, Rtkn, 25 [1] [fold] | Genotoxicity test, With S9 rat liver extract, Rtkn, 50 [1] [fold] | Genotoxicity test, Without S9 rat liver extract, Rtkn, 50 [1] [fold] | Genotoxicity test, With S9 rat liver extract, Bscl 2, 10 [2] [fold] | Genotoxicity test, Without S9 rat liver extract, Bscl 2, 10 [2] [fold] | Genotoxicity test, With S9 rat liver extract, Bscl 2, 25 [2] [fold] | Genotoxicity test, Without S9 rat liver extract, Bscl 2, 25 [2] [fold] | Genotoxicity test, With S9 rat liver extract, Bscl 2, 50 [2] [fold] | Genotoxicity test, Without S9 rat liver extract, Bscl 2, 50 [2] [fold]
CC(CN1CC1C)OC(=O)NCCCCCCNC(=O)OC(C)CN1CC1C (centres unmarked) [Comp. Ex. 6, reference compound] | 2.2 | 2.1 | 3.4 | 3.1 | 2.1 | 3.1 | 1.4 | 1.4 | 2.1 | 2.0 | 2.3 | 2.0
CC(CN1CC1C)OC(=O)NCC1(C)CC(NC(=O)OC(C)CN2CC2C)CC(C)(C)C1 (centres unmarked) [Comp. Ex. 7, reference compound] | 1.6 | 1.6 | 2.7 | 2.5 | 3.5 | 3.8 | 1.2 | 1.2 | 1.6 | 1.6 | 1.7 | 2.4
CC(CN1CC1C)OC(=O)NC(C)(C)c1cccc(C(C)(C)NC(=O)OC(C)CN2CC2C)c1 (centres unmarked) [Comp. Ex. 8, reference compound] | 1.3 | 1.4 | 4.2 | 2.3 | 4.9 | 4.8 | 1.1 | 1.2 | 2.1 | 1.7 | 2.1 | 2.3
CC(CN1CC1C)OC(=O)NC1CCC(CC2CCC(NC(=O)OC(C)CN3CC3C)CC2)CC1 (centres unmarked) [Comp. Ex. 9, reference compound] | 1.6 | 1.5 | 2.6 | 2.2 | 3.7 | 3.3 | 1.2 | 1.2 | 1.6 | 1.6 | 2.0 | 2.2
CCCCOCC(CN1CC1C)OC(=O)NCCCCCCNC(=O)OC(COCCCC)CN1CC1C (centres unmarked) [Comp. Ex. 10, reference compound] | 1.5 | 1.2 | 2.3 | 1.9 | 2.2 | 1.9 | 1.3 | 1.3 | 1.5 | 1.5 | 1.5 | 1.6
CCCCOCC(CN1CC1C)OC(=O)Nc1ccc(C)c(NC(=O)OC(COCCCC)CN2CC2C)c1 (centres unmarked) [Comp. Ex. 11, reference compound] | 1.2 | 1.3 | 2.1 | 2.1 | 2.5 | 2.3 | 1.3 | 1.2 | 1.7 | 1.6 | 1.6 | 1.9
CC(CN1CC1C)OC(=O)NCCCCCCn1c(=O)n(CCCCCCNC(=O)OC(C)CN2CC2C)c(=O)n(CCCCCCNC(=O)OC(C)CN2CC2C)c1=O (centres unmarked) [Ex. 1] | 1.2 | 1.2 | 1.1 | 1.2 | 0.9 | 1.4 | – | – | – | – | – | –
CC(CN1CC1C)OC(=O)NCCCCCC/N=c1\oc(=O)n(CCCCCCNC(=O)OC(C)CN2CC2C)c(=O)n1CCCCCCNC(=O)OC(C)CN1CC1C (centres unmarked) [Ex. 2] | 1.1 | 1.1 | – | 1.0 | – | 0.9 | 1.0 | 1.1 | – | 1.1 | – | 0.9
CCC(CN1CC1C)OC(=O)NCCCCCCn1c(=O)n(CCCCCCNC(=O)OC(CC)CN2CC2C)c(=O)n(CCCCCCNC(=O)OC(CC)CN2CC2C)c1=O (centres unmarked) [Ex. 7] | 1.1 | 1.1 | 1.3 | 1.3 | 1.5 | – | 1.1 | 1.1 | 1.3 | 1.1 | 1.5 | –
CC(OC(=O)NCCCCCCn1c(=O)n(CCCCCCNC(=O)OC(C)C(C)N2CC2C)c(=O)n(CCCCCCNC(=O)OC(C)C(C)N2CC2C)c1=O)C(C)N1CC1C (centres unmarked) [Ex. 8] | 1.3 | 1.2 | 1.5 | 1.4 | 1.3 | 1.4 | – | – | – | – | – | –
C=CCOCC(CN1CC1C)OC(=O)NCCCCCCn1c(=O)n(CCCCCCNC(=O)OC(COCC=C)CN2CC2C)c(=O)n(CCCCCCNC(=O)OC(COCC=C)CN2CC2C)c1=O (centres unmarked) [Ex. 9] | 1.1 | 1.0 | 1.1 | 1.1 | 1.2 | 1.1 | 1.2 | 1.1 | 1.2 | 1.2 | 1.2 | 1.2
CCCCOCC(CN1CC1C)OC(=O)NC(C)(C)c1cccc(C(C)(C)NC(=O)OC(COCCCC)CN2CC2C)c1 (centres unmarked) [Ex. 11] | 1.3 | 1.1 | 1.3 | 1.3 | 1.1 | 1.3 | 1.2 | 1.1 | 1.3 | 1.3 | 1.3 | 1.3
CCCCOCC(CN1CC1C)OC(=O)NC1CCC(CC2CCC(NC(=O)OC(COCCCC)CN3CC3C)CC2)CC1 (centres unmarked) [Ex. 12] | 1.0 | 1.0 | 1.0 | 1.0 | 1.1 | 1.0 | 1.1 | 1.0 | 1.0 | 1.0 | 1.0 | 1.0
CCCCOCC(CN1CC1C)OC(=O)NCCCCCCN1C(=O)N(CCCCCCNC(=O)OC(COCCCC)CN2CC2C)C1=O (centres unmarked) [Ex. 13] | 1.4 | 1.1 | 1.6 | 1.2 | – | – | 1.2 | 1.1 | 1.2 | 1.3 | – | –
